SMILES strings stand for the structures.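 Method: 48-hour compound exposure of cells in 96-well plates, five concentrations, linear interpolation of endpoints. TGI denotes the concentration required for complete inhibition of growth.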 Where only a bound is given, the exact number is not on record here.

Common to all, as to experiment: inhibition of tumour cell growth, NCI panel, 48 h
The subject of test [1] is SNB-19 CNS.
In test [2] the test system is SN12C renal.
In test [3] the test system is IGROV1 ovarian.
The subject of test [4] is OVCAR-8 ovarian.
In test [5] the test system is RPMI-8226 leukemia.
Test [6] has as its system HCT-15 colon.
The subject of test [7] is OVCAR-3 ovarian.
Test [8] has as its system U251 CNS.
Test [9] deals with HL-60(TB) leukemia.
Test [10] deals with COLO 205 colon.
For test [11], the system named is UACC-257 melanoma.
The subject of test [12] is CCRF-CEM leukemia.
The test system of test [13] is MOLT-4 leukemia.
In test [14] the test system is M14 melanoma.
The test system of test [15] is LOX IMVI melanoma.
In test [16] the test system is MCF7 breast.
Test [17] relates to MDA-MB-435.
The subject of test [18] is SK-MEL-5 melanoma.
Test [19] has as its system TK-10 renal.

For the compound `CSc1ccsc1-c1sc(-c2cc(SC)c(-c3sc(-c4cc(SC)c(-c5sccc5SC)s4)cc3SC)s2)cc1SC`, the TGI in test [1], in [2], in test [3], in test [4], in test [5] and in test [6] was > 100 µM each time. The TGI in test [7] is > 100 µM; in [8], > 100 µM; in test [9] it was 8.9 µM; in test [10] it was > 100 µM; in test [11] it was > 100 µM; in test [12], 27 µM. Also, the TGI is > 100 µM in test [13]; > 100 µM in test [14]; > 100 µM in test [15]; > 100 µM in [16]; 56.5 µM in test [17]; > 100 µM in test [18]. In addition, in [19], the TGI is > 100 µM.
Consider `CC(=O)OCC1OC(OC2CC3C(C)(C)C(O)CC[C@]3(C)C3CCC45CC4(CCC5[C@@H](C)CC(O)C(O)C(C)(C)O)[C@]23C)C(O)C(O)C1O` (stereo partly drawn), for which the TGI in test [1], in test [2], in test [3], in test [4], in test [5] and in test [6] was > 10 µM throughout. The TGI in test [7], in test [8], in test [9], in test [10], in test [11] and in test [12] was > 10 µM throughout. The TGI in test [13], in [14], in test [15], in [16], in test [17] and in [18] was > 10 µM each time. Further, in test [19], the TGI was > 10 µM.
For `O=C(O)CCSC(CC1(c2ccc(Cl)cc2)NC(=O)CCS1)c1ccccc1` (stereo not drawn), the TGI was > 56.1 µM in [1]; 33.4 µM in test [2]; 31.7 µM in test [3]; 39.5 µM in [4]; > 100 µM in [5]; 32.1 µM in test [6]. The TGI is 41.5 µM in test [7]; 42.2 µM in test [8]; > 100 µM in test [9]; > 60.6 µM in test [10]; 49.1 µM in test [11]; 24.8 µM in [12]. Besides, the TGI is > 100 µM in test [13]; 50.9 µM in test [14]; > 100 µM in test [15]; > 55.3 µM in test [16]; 29.8 µM in test [17]; 48 µM in test [18]. In test [19], this compound displayed a TGI of 36 µM.
For the compound `CC1=C(/C=C/C(C)=C/C=C/C(C)=C/C(=O)OC2CC(n3cc(F)c(=O)[nH]c3=O)OC2CO)C(C)(C)CCC1` (stereo not drawn), the TGI in test [1] came to 23.6 µM; in [2], 32 µM; in [3], 24.6 µM; in [4], 23.6 µM; in test [5], 15.8 µM; in [6] it was 27.6 µM. The TGI in test [7] worked out at 22.5 µM; in test [8], 20 µM; in test [9] it was 7.37 µM; in [10] it was 25.8 µM; in test [11], 29.6 µM; in test [12] it was 31.8 µM. For the same compound, the TGI in test [13] turned out to be 20.2 µM; in test [14], 17.4 µM; in test [15] it was 20.6 µM; in [16] it was 19.5 µM; in test [17] it was 25.2 µM; in test [18], 13.9 µM. The compound also came in with a TGI in test [19] of 25.8 µM.
For the compound `CC1OC(OC2C(OC(=O)[C@]34CCC(C)(C)C[C@H]3C3=CC[C@@H]5[C@@]6(C)CC[C@H](OC7OC(CO)C(O)C(O)C7OC7OC(CO)C(O)C(O)C7O)C(C)(C)[C@@H]6CC[C@@]5(C)[C@]3(C)CC4)OCC(O)C2O)C(O)C(OC2OCC(O)C(O)C2O)C1OC1OCC(O)C(OC2OCC(O)C(O)C2O)C1O` (stereo partly drawn), the TGI in test [1] is 49.5 µM; in [2], 5.56 µM; in [3] it was > 67.4 µM; in [4], > 83.2 µM; in test [5], 24 µM; in [6] it was > 79.4 µM. Besides, the TGI in test [7] is > 100 µM; in test [8], > 56.8 µM; in test [9] it was 10.8 µM; in [10], 8.16 µM; in test [11], 13.9 µM; in test [12] it was > 100 µM. The TGI is 48.6 µM in [13]; 6.3 µM in [14]; > 74.6 µM in test [15]; 58.3 µM in test [16]; 5.6 µM in test [17]; 23.3 µM in test [18]. The same compound gave a TGI in test [19] of 29.8 µM.
`CCOC(=O)C(CCN1CCC2(CC1)C(=O)N(C)CN2c1ccccc1)C(=O)OCC`: the TGI in test [1], in [2], in test [3], in test [4], in test [5] and in [6] was > 100 µM each time. For the same compound, the TGI in test [7], in [8], in [9], in [10], in [11] and in test [12] was > 100 µM throughout. In addition, the TGI in test [13], in test [14], in [15], in test [16], in [17] and in [18] was > 100 µM each time. Besides, the TGI in test [19] is > 100 µM.
On to `O=C1c2ccccc2C(=O)c2c1nc1ccccc1c2-c1cncc(-c2c3c(nc4ccccc24)C(=O)c2ccccc2C3=O)c1`, for which the TGI in test [1] was > 82.7 µM; in test [2], 27.9 µM; in [3], 19.7 µM; in [4], 27.1 µM; in test [5], 3.51 µM; in test [6], 9.34 µM. The TGI in test [7] was > 75.6 µM; in test [8], > 45.8 µM; in [9], 18.3 µM; in test [10], 19.8 µM; in test [11], 22.4 µM; in [12], 43.9 µM. Also, the TGI in test [13] was determined as 12.2 µM; in test [14], 32.4 µM; in test [15], 13.8 µM; in test [16] it was 32.8 µM; in [17], 3.96 µM; in test [18], 4.22 µM. In test [19], the TGI was > 100 µM.

(Values after PubChem BioAssay (NCI).)
